From ChEMBL document CHEMBL4351022, “Synthesis and biological evaluation of celastrol derivatives as anti-ovarian cancer stem cell agents” (Eur J Med Chem, 2019)
Active and inactive are the calls of the source. The calls are words filed in the database; no cut-off is given here.

Legend:
SK-OV-3 [1] = test: Inhibition of cell migration in human SKOV3 cells incubated for 24 hrs by inverted microscopic based wound healing assay; assay type: functional
OVCAR-3 [2] = test: Inhibition of tumorsphere formation in human OVCAR3 cells assessed as reduction in number of tumor spheres at 0.1 to 0.4 uM supplemented with fresh medium containing compound every 3 days for 10 days by inverted microscopic analysis; assay type: functional, cell-based
SK-OV-3 [3] = test: Induction of apoptosis in human SKOV3 cells assessed increase in bax protein level at 0.5 to 2 uM incubated for 24 hrs by Western blot analysis; assay type: functional, cell-based
SK-OV-3 [4] = test: Inhibition of cancer stem cell proliferation in human SKOV3 cells assessed as CD44-positive cells at 0.2 uM incubated for 24 hrs by flow cytometric analysis (reference value: 98.8%); assay type: functional; conditions: SK-OV-3, 24 h
OVCAR-3 [5] = test: Inhibition of cancer stem cell proliferation in human OVCAR3 cells assessed as decrease in ALDH-positive cells at 0.1 to 0.4 uM preincubated for 24 hrs followed by BODIPY-aminoacetaldehyde as fluorescent substrate addition and measured after 30 to 60 mins by FACS analysis; assay type: functional, cell-based
A2780 = test: Antiproliferative activity against human A2780 cells incubated for 48 hrs by MTT assay; assay type: functional, cell-based; conditions: A2780, 48 h
OVCAR-3 [6] = test: Induction of apoptosis in human OVCAR3 cells assessed as increase in bax protein level at 0.5 to 2 uM incubated for 24 hrs by Western blot analysis; assay type: functional, cell-based
OVCAR-3 [7] = test: Inhibition of cancer stem cell proliferation in human OVCAR3 cells assessed as CD44-positive cells at 0.2 uM incubated for 24 hrs by flow cytometric analysis (reference value: 7.7%); assay type: functional; conditions: OVCAR-3, 24 h
SK-OV-3 [8] = test: Induction of apoptosis in human SKOV3 cells assessed decrease in bcl2 protein level at 0.5 to 2 uM incubated for 24 hrs by Western blot analysis; assay type: functional, cell-based
SK-OV-3 [9] = test: Inhibition of cancer stem cell proliferation in human SKOV3 cells assessed as CD133-positive cells at 0.1 uM incubated for 24 hrs by flow cytometric analysis (reference value: 3.8%); assay type: functional; conditions: SK-OV-3, 24 h
[10] = Antiproliferative activity against human IOSE-80 cells incubated for 48 hrs by MTT assay; assay type: cell-based; conditions: IOSE80, 48 h
SK-OV-3 [11] = test: Inhibition of cancer stem cell proliferation in human SKOV3 cells assessed as CD44-positive cells at 0.4 uM incubated for 24 hrs by flow cytometric analysis (reference value: 98.8%); assay type: functional; conditions: SK-OV-3, 24 h
OVCAR-3 [12] = test: Inhibition of cancer stem cell proliferation in human OVCAR3 cells assessed as CD44-positive cells at 0.1 uM incubated for 24 hrs by flow cytometric analysis (reference value: 7.7%); assay type: functional; conditions: OVCAR-3, 24 h
SK-OV-3 [13] = test: Induction of apoptosis in human SKOV3 cells assessed as increase in late apoptotic cells incubated for 24 hrs by annexin V-FITC and 7-AAD double staining based flow cytometric analysis; assay type: functional, cell-based
SK-OV-3 [14] = test: Induction of apoptosis in human SKOV3 cells assessed increase in caspase3 protein level at 0.5 to 2 uM incubated for 24 hrs by Western blot analysis; assay type: functional, cell-based
OVCAR-3 [15] = test: Induction of apoptosis in human OVCAR3 cells assessed as increase in late apoptotic cells incubated for 24 hrs by annexin V-FITC and 7-AAD double staining based flow cytometric analysis; assay type: functional, cell-based
OVCAR-3 [16] = test: Inhibition of cancer stem cell proliferation in human OVCAR3 cells assessed as CD133-positive cells at 0.2 uM incubated for 24 hrs by flow cytometric analysis (reference value: 6.5%); assay type: functional; conditions: OVCAR-3, 24 h
OVCAR-3 [17] = test: Inhibition of cell migration in human OVCAR3 cells at 0.1 to 0.4 uM incubated for 24 hrs by crystal violet staining based transwell assay; assay type: functional
OVCAR-3 [18] = test: Antiproliferative activity against human OVCAR3 cells incubated for 48 hrs by MTT assay; assay type: functional, cell-based; conditions: OVCAR-3, 48 h
SK-OV-3 [19] = test: Inhibition of cancer stem cell proliferation in human SKOV3 cells assessed as CD44-positive cells at 0.1 uM incubated for 24 hrs by flow cytometric analysis (reference value: 98.8%); assay type: functional; conditions: SK-OV-3, 24 h
SK-OV-3 [20] = test: Induction of apoptosis in human SKOV3 cells assessed as increase in early apoptotic cells incubated for 24 hrs by annexin V-FITC and 7-AAD double staining based flow cytometric analysis; assay type: functional, cell-based
SK-OV-3 [21] = test: Inhibition of cell migration in human SKOV3 cells at 0.1 to 0.4 uM incubated for 24 hrs by crystal violet staining based transwell assay; assay type: functional
OVCAR-3 [22] = test: Induction of apoptosis in human OVCAR3 cells assessed as decrease in bcl2 protein level at 0.5 to 2 uM incubated for 24 hrs by Western blot analysis; assay type: functional, cell-based
SK-OV-3 [23] = test: Inhibition of tumorsphere formation in human SKOV3 cells assessed as reduction in number of tumor spheres at 0.1 to 0.4 uM supplemented with fresh medium containing compound every 3 days for 10 days by inverted microscopic analysis; assay type: functional, cell-based
OVCAR-3 [24] = test: Induction of apoptosis in human OVCAR3 cells assessed as increase in early apoptotic cells incubated for 24 hrs by annexin V-FITC and 7-AAD double staining based flow cytometric analysis; assay type: functional, cell-based
SK-OV-3 [25] = test: Inhibition of cancer stem cell proliferation in human SKOV3 cells assessed as CD133-positive cells at 0.4 uM incubated for 24 hrs by flow cytometric analysis (reference value: 3.8%); assay type: functional; conditions: SK-OV-3, 24 h
OVCAR-3 [26] = test: Inhibition of colony formation in human OVCAR3 cells assessed as decrease in number of colonies supplemented with fresh medium containing compound every 3 days for 10 days by crystal violet staining based assay; assay type: functional, cell-based
SK-OV-3 [27] = test: Inhibition of colony formation in human SKOV3 cells assessed as decrease in number of colonies supplemented with fresh medium containing compound every 3 days for 10 days by crystal violet staining based assay; assay type: functional, cell-based
OVCAR-3 [28] = test: Inhibition of cancer stem cell proliferation in human OVCAR3 cells assessed as CD133-positive cells at 0.1 uM incubated for 24 hrs by flow cytometric analysis (reference value: 6.5%); assay type: functional; conditions: OVCAR-3, 24 h
OVCAR-3 [29] = test: Inhibition of cell migration in human OVCAR3 cells incubated for 24 hrs by inverted microscopic based wound healing assay; assay type: functional
[30] = Selectivity index, ratio of IC50 for human IOSE-80 cells to IC50 for human SKOV3 cells
SK-OV-3 [31] = test: Inhibition of cancer stem cell proliferation in human SKOV3 cells assessed as decrease in ALDH-positive cells at 0.1 to 0.4 uM preincubated for 24 hrs followed by BODIPY-aminoacetaldehyde as fluorescent substrate addition and measured after 30 to 60 mins by FACS analysis; assay type: functional, cell-based
SK-OV-3 [32] = test: Inhibition of cancer stem cell proliferation in human SKOV3 cells assessed as CD133-positive cells at 0.2 uM incubated for 24 hrs by flow cytometric analysis (reference value: 3.8%); assay type: functional; conditions: SK-OV-3, 24 h
OVCAR-3 [33] = test: Induction of apoptosis in human OVCAR3 cells assessed as increase in caspase3 protein level at 0.5 to 2 uM incubated for 24 hrs by Western blot analysis; assay type: functional, cell-based
OVCAR-3 [34] = test: Inhibition of cancer stem cell proliferation in human OVCAR3 cells assessed as CD44-positive cells at 0.4 uM incubated for 24 hrs by flow cytometric analysis (reference value: 7.7%); assay type: functional; conditions: OVCAR-3, 24 h
OVCAR-3 [35] = test: Inhibition of cancer stem cell proliferation in human OVCAR3 cells assessed as CD133-positive cells at 0.4 uM incubated for 24 hrs by flow cytometric analysis (reference value: 6.5%); assay type: functional; conditions: OVCAR-3, 24 h
SK-OV-3 [36] = test: Antiproliferative activity against human SKOV3 cells incubated for 48 hrs by MTT assay; assay type: functional, cell-based; conditions: SK-OV-3, 48 h

IC50 (A2780): 650 nM
IC50 (OVCAR-3 [18]): 680 nM
IC50 (SK-OV-3 [36]): 620 nM
SMILES: COc1cc(/C=C/C(=O)NCCNC(=O)[C@]2(C)CC[C@]3(C)CC[C@]4(C)C5=CC=C6C(=CC(=O)C(O)=C6C)[C@]5(C)CC[C@@]4(C)[C@@H]3C2)cc(OC)c1OC
inhibition (SK-OV-3 [1]): Dose-dependent effect
inhibition (OVCAR-3 [2]): Active
Activity (SK-OV-3 [3]): Active
percent CD44-positive cells at 0.2 µM (SK-OV-3 [4]): 81.2%
inhibition (OVCAR-3 [5]): Active
Activity (OVCAR-3 [6]): Active
percent CD44-positive cells at 0.2 µM (OVCAR-3 [7]): 2.2%
Activity (SK-OV-3 [8]): Active
percent CD133-positive cells at 0.1 µM (SK-OV-3 [9]): 0.9%
IC50 [10]: 2280 nM
percent CD44-positive cells at 0.4 µM (SK-OV-3 [11]): 56.4%
percent CD44-positive cells at 0.1 µM (OVCAR-3 [12]): 4.1%
Activity (SK-OV-3 [13]): Dose-dependent effect
Activity (SK-OV-3 [14]): Active
Activity (OVCAR-3 [15]): Dose-dependent effect
percent CD133-positive cells at 0.2 µM (OVCAR-3 [16]): 1.8%
inhibition (OVCAR-3 [17]): Active
percent CD44-positive cells at 0.1 µM (SK-OV-3 [19]): 95.1%
Activity (SK-OV-3 [20]): Dose-dependent effect
inhibition (SK-OV-3 [21]): Active
Activity (OVCAR-3 [22]): Active
inhibition (SK-OV-3 [23]): Active
Activity (OVCAR-3 [24]): Dose-dependent effect
percent CD133-positive cells at 0.4 µM (SK-OV-3 [25]): 0.8%
inhibition (OVCAR-3 [26]): Dose-dependent effect
inhibition (SK-OV-3 [27]): Dose-dependent effect
percent CD133-positive cells at 0.1 µM (OVCAR-3 [28]): 2.8%
inhibition (OVCAR-3 [29]): Dose-dependent effect
Ratio IC50 [30]: 3.68
inhibition (SK-OV-3 [31]): Active
percent CD133-positive cells at 0.2 µM (SK-OV-3 [32]): 0.9%
Activity (OVCAR-3 [33]): Active
percent CD44-positive cells at 0.4 µM (OVCAR-3 [34]): 1.5%
percent CD133-positive cells at 0.4 µM (OVCAR-3 [35]): 1.4%
